Laboratory results: paper PMC5938390, “Tachyplesin Causes Membrane Instability That Kills Multidrug-Resistant Bacteria by Inhibiting the 3-Ketoacyl Carrier Protein Reductase FabG” (Frontiers in Microbiology, 2018)
Positions of bridges follow the written chain, without caps; N, C: chain ends. Residues, ends and D or L forms follow the SMILES beside them.

Tests used:
[1] = molecular target: T1, FabG from E. coli (Escherichia coli, UniProt P0AEK2); test: Surface plasmon resonance binding; conditions: tachyplesin III on CM5 chip, FabG 1.25-10 μg/mL injected, HBS-N buffer
T1 construct: His tag (N); made in house; host or cells: E. coli BL21 DE3 (vector pET28a)
T1 sequence (P0AEK2 1-244): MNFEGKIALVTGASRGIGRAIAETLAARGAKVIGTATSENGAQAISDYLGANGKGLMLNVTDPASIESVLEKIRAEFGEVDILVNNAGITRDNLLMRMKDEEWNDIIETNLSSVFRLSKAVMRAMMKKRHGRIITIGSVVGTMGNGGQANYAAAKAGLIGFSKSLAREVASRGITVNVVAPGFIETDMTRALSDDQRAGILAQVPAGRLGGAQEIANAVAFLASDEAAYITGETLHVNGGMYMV
Method: (§1) N-terminal His-tagged FabG from E. coli and C-terminal His-tagged FabG from Staphylococcus aureus were cloned into the NcoI and XhoI cloning sites of the vector pET28a, expressed in BL21 DE3 E. coli and further purified with Ni resin ([Kristan et al., 2009]; [Srinivas and Cronan, 2017]). The binding interaction between tachyplesin III and FabG was analyzed by surface plasmon resonance (SPR) with a Biocore 3000 (Biocore, Piscataway, NJ, United States). Briefly, tachyplesin III was adsorbed onto a CM5 sensor chip using an amine-coupling kit (GE Healthcare, Little Chalfont, United Kingdom) to obtain approximately 1000 resonance units. […] The binding affinity of FabG for tachyplesin III was determined by BIAevaluation 3.0 software (Biacore) with a 1:1 Langmuir binding model for the kinetic calculation ([Wei et al., 2013]).
(§2) FIGURE 7 Tachyplesin III binding with FabG inhibits its enzyme activities in vitro, probably by blocking the active site. Binding interactions between tachyplesin III and FabG from E. coli (A) or from S. aureus (E) were analyzed by surface plasmon resonance (SPR) with a Biocore 3000 (Biocore, Piscataway, NJ, United States). […] Statistical significance was analyzed by one-way ANOVA followed by the Newman–Keuls multiple-comparisons test, ^∗∗p < 0.01, ^∗p < 0.05.

[2] = molecular target: T2, FabG from S. aureus (Staphylococcus aureus, UniProt P0A0H9); test: Surface plasmon resonance binding; conditions: tachyplesin III on CM5 chip, FabG 1.25-10 μg/mL injected, HBS-N buffer
T2 construct: His tag (C); made in house; host or cells: E. coli BL21 DE3 (vector pET28a)
T2 sequence (P0A0H9 1-246): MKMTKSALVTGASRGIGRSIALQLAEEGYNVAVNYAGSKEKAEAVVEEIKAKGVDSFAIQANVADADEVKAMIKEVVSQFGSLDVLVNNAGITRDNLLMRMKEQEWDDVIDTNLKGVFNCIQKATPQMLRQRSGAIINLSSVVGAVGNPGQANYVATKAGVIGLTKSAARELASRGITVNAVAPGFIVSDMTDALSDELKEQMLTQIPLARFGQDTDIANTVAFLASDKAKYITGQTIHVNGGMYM
Method: as §1, §2

[3] = system: P. aeruginosa 1409; format: cell-based, Pseudomonas aeruginosa; conditions: Pa; Ta 16 μg/ml, 30 min, 37°C
Method: (§3) The Vitek 32 system (bioMerieux, France) and 16S rDNA sequencing were used to verify the clinical isolates A. baumannii 1408, P. aeruginosa 1409, Klebsiella pneumoniae 5 and E. coli 513, which were grown overnight in Luria-Bertani (LB) medium at 37°C with constant shaking at 220 rpm to reach the middle of their logarithmic growth phase. […] After the addition of 2 volumes of RNAprotect Bacteria Reagent (QIAGEN) to stabilized RNA, samples were vortexed for 5 s, incubated for 5 min at room temperature (15–25°C) and collected by centrifugation at 4°C for 5 min at 4000 g.
(§4) RNA isolation and sequencing were performed by Novogene Bioinformatics Technology Co., Ltd. (Beijing, China) as previously described ([Liu B. et al., 2014]). Clean reads were mapped to the corresponding bacterial genomes using Bowtie 2 software ([Langmead and Salzberg, 2012]). Gene expression was calculated using the FPKM (expected number of fragments per kilobase of transcript sequence per millions of base pairs sequenced) method with HTSeq software (union model) ([Anders et al., 2015]). Differentially expressed genes were selected based on the DESeq R package with Padj values < 0.05 ([Anders and Huber, 2010]). KEGG pathway analysis was performed using KOBAS (2.0), and the corrected p value cut-off was set at 0.05 ([Li et al., 2015]).

[4] = system: A. baumannii 1408; test: Transcriptome analysis (RNA sequencing, FPKM, DESeq); format: cell-based, Acinetobacter baumannii; conditions: Ab; Ta 16 μg/ml, 30 min, 37°C
Method: as §3, §4

[5] = system: P. aeruginosa strain 1409; test: Membrane rupture by propidium iodide staining; format: cell-based, Pseudomonas aeruginosa; conditions: LB medium, 25°C, 1 h, then PI 10 μg/ml 30 min
Method: These studies were carried out as we previously reported with slight modifications and briefly introduced as follows ([Liu et al., 2017]). […] Cytotoxicity in different cell lines was assessed using the Cell Proliferation Kit II (XTT) (Roche), and cytotoxicity in hemocytes was evaluated by the increase in the absorbance at 540 nm after peptide incubation. Membrane rupture was indicated by the entrance of the DNA-binding fluorescent dye PI into MDR clinical isolates of P. aeruginosa strain 1409. Membrane translocation of N-terminal FITC-conjugated tachyplesin III (purity ≥ 95%, synthesized by GL Biochem Co., Ltd, Shanghai, China) into MDR clinical isolates of Acinetobacter baumannii strain 1408 were detected by confocal laser-scanning microscopy.
After centrifugation at 3000 g for 10 min, cells were resuspended in the same volume of PBS (phosphate-buffered saline, 8 g/L NaCl, 0.2 g/L KCl, 1.44 g/L Na2HPO4, 0.24 g/L KH2PO4, pH 7.4). Then, PI was added to a final concentration of 10 μg/ml. After 30 min of incubation at 25°C, the cells were washed three times with PBS and immediately imaged with a fluorescence microscope.

[6] = system: A. baumannii 1408; test: MIC against MDR clinical isolate; format: cell-based, Acinetobacter baumannii

CC[C@H](C)[C@@H]1NC(=O)CNC(=O)[C@H](CCCNC(=N)N)NC(=O)[C@H](Cc2ccc(O)cc2)NC(=O)[C@@H]2CSSC[C@H](NC1=O)C(=O)N[C@@H](Cc1ccc(O)cc1)C(=O)N[C@@H](CCCNC(=N)N)C(=O)N[C@@H](CCCCN)C(=O)N[C@H](C(=O)N[C@@H](CCCNC(=N)N)C(N)=O)CSSC[C@H](NC(=O)[C@H](Cc1c[nH]c3ccccc13)NC(=O)[C@@H](N)CCCCN)C(=O)N[C@@H](Cc1ccccc1)C(=O)N[C@@H](CCCNC(=N)N)C(=O)N[C@@H](C(C)C)C(=O)N2 [tachyplesin III] (H-KWCFRVCYRGICYRKCR-NH2; disulfide 3-16, 7-12 (inferred); N-terminus and C-terminus assumed)
binding with FabG (SPR) [1]: could bind | binding with FabG (SPR) [2]: could bind | Fold change after Ta treatment, gene PADK2_09275 (3-hydroxyacyl-CoA dehydrogenase) [3]: 2.04 | Fold change after Ta treatment, gene PADK2_25405 (3-ketoacyl-acyl carrier protein reductase) [3]: 2.71 | Fold change after Ta treatment, gene A1S_2061 (3-ketoacyl-acyl carrier protein reductase) [4]: 2.89 | membrane integrity (PI fluorescence) ([5]; 1/4× MIC): slight membrane breakage in a small proportion of the treated bacteria | membrane integrity (PI fluorescence) ([5]; 4× MIC (high concentration)): complete membrane breakage of nearly all of the treated bacteria | 16 μg/ml tachyplesin III expressed as multiple of MIC [6]: 1 × MIC
